IC50 data for 21 compounds are collected here from patent EP1900728A1 (Genecare Research Institute Co., Ltd, priority 2005, dated 2006).

Molecules are shown by their SMILES. pIC50: −log10 of the molar value. Where two headings read alike, the source gives them in different places.

The target of assay [1] is T1, IκBα ubiquitinating enzyme (SCF complex: ROC1, Cullin1, Skp1, His-TrCP1; with E1, UbcH5b) (Homo sapiens, UniProt P62877+P63208+Q13616+Q9Y297).
T1 construct: His (polyhistidine); made in house; host or cells: insect cells (baculovirus) for the SCF complex and His-E1; E. coli for His-UBCH5b
T1 sequence (Q9Y297 whole entry): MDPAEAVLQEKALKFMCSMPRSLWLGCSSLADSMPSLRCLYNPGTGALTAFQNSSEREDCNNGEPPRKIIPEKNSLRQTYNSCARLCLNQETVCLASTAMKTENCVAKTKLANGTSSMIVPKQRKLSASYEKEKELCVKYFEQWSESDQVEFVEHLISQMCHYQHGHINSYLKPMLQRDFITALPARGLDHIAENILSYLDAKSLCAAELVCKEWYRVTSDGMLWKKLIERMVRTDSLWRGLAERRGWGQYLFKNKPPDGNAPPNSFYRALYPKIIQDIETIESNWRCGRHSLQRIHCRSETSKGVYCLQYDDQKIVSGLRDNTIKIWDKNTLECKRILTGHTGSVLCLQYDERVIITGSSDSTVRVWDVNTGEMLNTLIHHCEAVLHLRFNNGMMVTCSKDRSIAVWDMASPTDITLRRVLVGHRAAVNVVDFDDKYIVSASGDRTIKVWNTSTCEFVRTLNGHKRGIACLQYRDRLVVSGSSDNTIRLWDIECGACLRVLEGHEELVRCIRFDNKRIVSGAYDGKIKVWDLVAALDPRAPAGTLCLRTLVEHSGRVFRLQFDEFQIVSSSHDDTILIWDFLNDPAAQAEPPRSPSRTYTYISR
T1 sequence (Q13616 whole entry): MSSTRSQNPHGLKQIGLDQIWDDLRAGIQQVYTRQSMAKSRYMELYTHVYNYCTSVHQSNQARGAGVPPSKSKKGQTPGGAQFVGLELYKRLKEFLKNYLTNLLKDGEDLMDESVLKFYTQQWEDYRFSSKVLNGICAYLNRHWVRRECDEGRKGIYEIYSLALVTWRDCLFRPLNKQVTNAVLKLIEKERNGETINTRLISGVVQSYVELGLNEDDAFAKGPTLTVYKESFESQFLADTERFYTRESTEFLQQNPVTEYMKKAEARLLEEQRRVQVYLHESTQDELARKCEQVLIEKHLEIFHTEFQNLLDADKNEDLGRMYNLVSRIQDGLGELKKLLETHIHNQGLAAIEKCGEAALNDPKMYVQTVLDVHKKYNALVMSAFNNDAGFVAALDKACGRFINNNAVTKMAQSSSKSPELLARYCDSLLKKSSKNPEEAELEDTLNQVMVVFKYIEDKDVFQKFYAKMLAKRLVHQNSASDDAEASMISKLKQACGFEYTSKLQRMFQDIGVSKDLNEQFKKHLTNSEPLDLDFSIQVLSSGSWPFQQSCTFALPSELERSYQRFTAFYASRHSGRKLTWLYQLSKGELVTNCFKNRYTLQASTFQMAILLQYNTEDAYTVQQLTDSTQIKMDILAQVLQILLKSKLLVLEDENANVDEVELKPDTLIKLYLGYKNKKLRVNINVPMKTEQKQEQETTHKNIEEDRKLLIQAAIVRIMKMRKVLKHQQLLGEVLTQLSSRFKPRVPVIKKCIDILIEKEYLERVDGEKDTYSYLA
T1 sequence (P63208 whole entry): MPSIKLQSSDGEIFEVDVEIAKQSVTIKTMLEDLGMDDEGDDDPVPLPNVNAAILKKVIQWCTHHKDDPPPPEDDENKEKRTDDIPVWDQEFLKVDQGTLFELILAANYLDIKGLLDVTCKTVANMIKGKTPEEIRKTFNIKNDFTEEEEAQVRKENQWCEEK
T1 sequence (P62877 whole entry): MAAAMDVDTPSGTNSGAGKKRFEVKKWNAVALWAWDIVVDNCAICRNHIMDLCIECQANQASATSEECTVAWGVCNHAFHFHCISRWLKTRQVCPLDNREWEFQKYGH
The assay is described as follows: Measurement of ubiquitinating enzyme activity (IκBα ubiquitination, time-resolved fluorescence with Eu(K)-labeled ubiquitin and XL665-labeled anti-GST antibody). The format is biochemical. In a few lines: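 Human SCF complex with E1 and UbcH5b ubiquitinated GST-IκBα pre-phosphorylated by IKKβ (2 mM ATP, pH 7.4, 1 h, RT), with Eu(K)-ubiquitin, 30 min RT. Stopped with EDTA, XL665 anti-GST added for 2 h; 665/620 nm TR-FRET ratio. % inhibition versus no-compound control and no-SCF blank gave IC50.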

The subject of assay [2] is ICAM-1 expression in HT-29 cells. Description: Measurement of ICAM-1 expressing activity (TNFα-induced ICAM-1 expression, cell ELISA). It counts as cell-based. Conditions: Homo sapiens, Table 6, cell activity inhibition test by method (3), read-out: EVALUATION (IC50 class, inhibition of cell activity). The procedure, abridged:
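HT-29 cells pretreated with compound (0.5% DMSO final) for 30 min at 37°C, then stimulated with 30 ng/mL human TNFα for 4 h. Surface ICAM-1 measured by cell ELISA on methanol-fixed cells: anti-ICAM-1 plus POD secondary, TMBZ substrate, absorbance at 450 nm.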
(An ELISA detects its analyte on a solid surface through an enzyme-linked reagent.)

The mark [3] stands for this setting: enzyme activity inhibition test, method (1), Table 5, read-out: EVALUATION

`COCCC1=NN(c2cccc(C(=O)O)c2)C(=O)/C1=C\c1ccc(-c2cnn(C)c2)o1` [Compound 505]: the pIC50 in assay [1] (setting [3]) was 4.70 to 5.00; in assay [2], more than 4.40.
The like results for `COCCC1=NN(c2ccc(C(=O)O)cc2)C(=O)/C1=C\c1ccc(-c2cnn(C)c2)o1` [Compound 512] were, in that order, 4.70 to 5.00 and more than 4.40.
The like results for `Cn1cc(-c2ccc(/C=C3\C(=O)N(c4ccc(C(=O)O)cc4)N=C3Cc3ccccc3)o2)cn1` [Compound 518] were, in that order, 4.70 to 5.00 and 4.70 to 5.00.
Take `O=C(O)c1cccc(N2N=C(Cc3ccccc3)/C(=C/c3ccc(-c4ccccc4F)o3)C2=O)c1` [Compound 519]: the pIC50 in assay [1] (setting [3]) is 4.70 to 5.00; in assay [2] it was more than 5.00.
The like results for `COCCC1=NN(c2ccc(C(=O)O)cc2)C(=O)/C1=C\c1ccc(-c2ccccc2F)o1` [Compound 522] were, in that order, more than 5.00 and more than 5.00.
`CCOC(=O)c1ccccc1-c1ccc(/C=C2\C(=O)N(c3ccc(C(=O)O)cc3)N=C2C)o1` [Compound 527]: the pIC50 in assay [1] (setting [3]) and in assay [2] was more than 5.00 in each case.
For the compound `CC1=NN(c2ccc(C(=O)O)cc2)C(=O)/C1=C\c1ccc2c(ccn2C(=O)c2ccccc2)c1` [Compound 528], the pIC50 in assay [1] (setting [3]) was more than 5.00; in assay [2] it was more than 4.40.
For `CC1=NN(c2cccc(C(=O)O)c2)C(=O)/C1=C\c1ccc2c(ccn2C(=O)C2CC2)c1` [Compound 530], the pIC50 in assay [1] (setting [3]) is more than 5.00; in assay [2] it was more than 4.40.
On to `CC1=NN(c2cccc(C(=O)O)c2)C(=O)/C1=C\c1ccc2c(ccn2C(=O)c2ccco2)c1` [Compound 531], for which the pIC50 was more than 5.00 in assay [1] (setting [3]) and more than 4.40 in assay [2].
On the same counts, the results for `CC1=NN(c2cccc(C(=O)O)c2)C(=O)/C1=C\c1ccc2c(ccn2C(=O)c2cccn2C)c1` [Compound 532] are more than 5.00 and more than 4.40.
Consider `CC1=NN(c2ccc(C(=O)O)cc2)C(=O)/C1=C\c1ccc(OCC(=O)N2CCCCC2)cc1` [Compound 533], for which the values for the pIC50 in assay [1] (setting [3]) and in assay [2] were more than 5.00 and 4.70 to 5.00, respectively.
Consider `CC1=NN(c2ccc(C(=O)O)cc2)C(=O)C1=Cc1ccc(OCC(=O)N(C)C)cc1` [Compound 535], for which the pIC50 in assay [1] and in assay [2] was 4.70 to 5.00 throughout.
Consider `CC1=NN(c2ccc(C(=O)O)cc2)C(=O)/C1=C\c1ccc(OCC(N)=O)cc1` [Compound 536], for which the pIC50 in assay [1] (setting [3]) is more than 5.00; in assay [2], 4.70 to 5.00.
On the same counts, the results for `CC1=NN(c2ccc(C(=O)O)cc2)C(=O)/C1=C\c1ccc(OCC(=O)Nc2ccccc2)cc1` [Compound 537] are more than 5.00 and more than 4.40.
The like results for `CC1=NN(c2ccc(C(=O)O)cc2)C(=O)/C1=C\c1ccc(OCC(=O)N2CCOCC2)cc1` [Compound 538] were, in that order, more than 5.00 and more than 4.40.
Regarding `CC1=NN(c2ccc(C(=O)O)cc2)C(=O)/C1=C\c1ccc(Oc2ccccc2)cc1` [Compound 539], the pIC50 in assay [1] (setting [3]) and in assay [2] was more than 5.00 each time.
On to `CCOC(=O)COc1ccc(/C=C2\C(=O)N(c3ccc(C(=O)O)cc3)N=C2C)cc1` [Compound 540], for which the pIC50 in assay [1] (setting [3]) was more than 5.00; in assay [2] it was more than 4.40.
For the compound `CC1=NN(c2ccc(C(=O)O)cc2)C(=O)C1=Cc1ccc(OCc2ccc([N+](=O)[O-])cc2)cc1` [Compound 541], the pIC50 in assay [1] and in assay [2] was more than 5.00 each time.
Regarding `CC1=NN(c2ccc(C(=O)O)cc2)C(=O)/C1=C\c1cccc(O)c1` [Compound 542], the pIC50 in assay [1] (setting [3]) is more than 5.00; in assay [2], more than 4.40.
On to `CC1=NN(c2ccc(C(=O)O)cc2)C(=O)C1=Cc1ccc(OCCCN(C)C)cc1` [Compound 543], for which the pIC50 in assay [1] and in assay [2] was more than 5.00 each time.
Take `CC1=NN(c2ccc(C(=O)O)cc2)C(=O)/C1=C\c1ccc(NC(=O)c2ccccc2)cc1` [Compound 544]: the pIC50 in assay [1] (setting [3]) was more than 5.00; in assay [2], more than 4.40.
